Assay results from patent US11229628B2, “TRPA1 and TRPV4 inhibitors and methods of using the same for organ-specific inflammation and itch” (Duke University, priority 2015, dated 2022).
“Also recorded” adds a separate entry of the source.

Experiments:
human TRPV2 = target: T1, human TRPV2 (Homo sapiens, UniProt Q9Y5S1); assay: Ca2+ signal in N2a cells transfected with human TRPV2 (hypotonicity stimulation); assay type: cell-based; settings: hypotonicity (260 mosmol/L) stimulation
T1 construct: expressed in transfected cells; host or cells: N2a cells
T1 sequence (Q9Y5S1 1-764): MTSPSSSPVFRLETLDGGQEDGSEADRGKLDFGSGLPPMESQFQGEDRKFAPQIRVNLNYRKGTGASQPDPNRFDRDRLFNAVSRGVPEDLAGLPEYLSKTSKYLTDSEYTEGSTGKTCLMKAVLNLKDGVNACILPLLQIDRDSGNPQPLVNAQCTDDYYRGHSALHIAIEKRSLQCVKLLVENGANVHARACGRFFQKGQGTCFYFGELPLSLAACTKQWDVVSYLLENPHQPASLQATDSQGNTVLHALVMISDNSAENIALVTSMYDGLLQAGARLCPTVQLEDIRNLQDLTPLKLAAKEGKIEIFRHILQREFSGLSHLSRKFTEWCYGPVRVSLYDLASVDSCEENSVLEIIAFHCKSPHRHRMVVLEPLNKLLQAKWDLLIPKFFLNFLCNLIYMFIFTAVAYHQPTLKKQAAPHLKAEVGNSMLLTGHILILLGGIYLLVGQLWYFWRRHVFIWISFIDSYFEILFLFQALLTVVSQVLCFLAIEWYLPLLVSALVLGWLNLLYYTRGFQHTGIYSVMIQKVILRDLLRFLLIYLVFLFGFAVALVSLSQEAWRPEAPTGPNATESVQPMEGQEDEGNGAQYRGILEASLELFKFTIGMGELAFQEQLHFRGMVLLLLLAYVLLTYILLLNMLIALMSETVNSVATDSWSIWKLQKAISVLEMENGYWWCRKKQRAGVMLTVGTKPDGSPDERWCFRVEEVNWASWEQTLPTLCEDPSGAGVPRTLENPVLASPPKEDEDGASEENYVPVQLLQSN
Protocol: Compounds were tested for their effect on TRPV1, TRPV2, and TRPV3. Methods were similar to those described in Example 15. Briefly, N2a cells were transfected with human TRPV1, TRPV2, or TRPV3. eGFP-transfection was used as control. For specific stimulation of TRPV1, 5 μM capsaicin was used. For stimulation of TRPV2, hypotonicity (260 mosmol/L) was used, based on previous reports of TRPV2 being osmotically responsive. N2a cells were not responsive to hypotonicity, and neither were control-transfected cells. For TRPV3-expressing cells, camphor (20% of a commercially available stock solution) was used. […] Stimulation and control protocols were applied as for TRPA1-expressing N2a cells as detailed above in Example 15.
For TRPV1, TRPV2, and TRPV3, Ca2+ transience was not affected by administration of 16-8 or 16-8/18hy.

mice = assay: UVB-overexposure evoked nocifensive behavior (sunburn model), topical treatment; assay type: in vivo, mouse; settings: 0.5 mM in 40 μL
Protocol: Compounds were tested for their effect on nocifensive behavior (response to pain) following UVB overexposure. Behavioral tests were performed to evaluate the decrease in withdrawal thresholds in response to mechanical von Frey hair or thermal stimuli applied to hind paws. The Von-Frey apparatus (Ugo Basile) applied a mechanical stimulus with a flexible steel wire from underneath the hind paw. The force leading to withdrawal was determined. For the thermal stimuli test, paws were stimulated with heat from underneath applied by an infrared beam (Hargreave's test apparatus; Ugo Basile), and withdrawal latencies were recorded. The withdrawal thresholds were ascertained before and after UV exposure. Mice were exposed to UVB 3-5 days after the last application of tam/oil, using a Bio-Rad Gel Doc 2000 UV transilluminator (302 nm) for 5 min with an exposure of 600 mJ/cm^2. This represents 5-10 times the minimal erythema-inducing dose, in keeping with the rationale of inducing sunburn and studying sunburn-evoked pain.

mouse paw-pad skin = assay: UVB-photodermatitis of mouse paw-pad skin after topical treatment (immunolabeling, histopathology, Edn1 qPCR); assay type: in vivo
Protocol: A viscous solution of 68% EtOH/5% glycerol plus 1 mM or 5 mM GSK205 (none for control) was applied to hindpaws by rubbing in 20 μL, applied at time-points 1 hour and again 10 min before UV exposure.
Routine procedures were followed as described previously (Chen et al., 2009). Mice were perfused transcardially with 30 mL PBS, followed by 30 mL 4% paraformaldehyde. Tissues, including the L5 DRGs (bilateral), and footpad preparations, were dissected and post-fixed in 4% paraformaldehyde. Tissue blocks were further cryoprotected in 30% sucrose in PBS for 24-48 hours. For mouse TRPV4, keratin-specific antibodies, phospho-ERK, IL-6, IL-1β, CXCL5 and caspase-1, tissue was prepared as frozen blocks and subsequently sectioned on a cryostat. For CD68, CD15 (neutrophil elastase) and CD3, mouse skin was prepared by 2% PFA perfusion. Footpad and DRG sections (both at 6-10 μm) were thaw-mounted, blocked with 5% normal goat serum (NGS; Jackson), then incubated overnight at 4° C. with the following primary antibodies: rabbit anti-TRPV4 (1:300; Abcam), mouse anti-keratin 14 (1:300; Abcam against C-terminal peptide beyond residue 850); rabbit anti-keratin 14 (1:1000; Fuchs-Lab), rabbit anti-phosph-ERK1/2 (1:500; Cell signaling technologies), goat anti-IL-1β (1:800; Abcam), goat anti-IL-6 (1:200; Santa Cruz Biotechnology Inc); rabbit anti-caspase-1 (1:200; Biovision Research Products, CA); goat anti-mouse LIX/CXCL5 (1:200; R&D Systems Inc), anti-CD68, anti-[…], and anti-CD3 (AbDSerotec). Immunodetection was accomplished with appropriate fluorescently-labeled secondary antibodies (AlexaFluor595, AlexaFluor488-conjugated antibodies at 1:600; Invitrogen; for CD15 biotinylated secondary antibody from donkey, 1:400 followed by rhodamine-streptavidine 1:250), or with peroxidase-linked detection reagents (for CD68) for 2 hours at room-temperature. Sections were rinsed, mounted, and cover-slipped with fluoromount (Sigma). Digital micrographs were obtained using a BX61 Olympus upright microscope, also with a Zeiss LSM510 confocal, both equipped with high-res CCD camera, and acquired with constant exposure settings, using ISEE or Zeiss Zen software. Morphometric analysis was conducted using ImageJ freeware (v1.45) with tailored regions-of-interest that spared the nuclear compartment. ImageJ was also used for determination of DRG surface area.
In view of TRPV4-dependence of ET/Edn1 expression in skin, we measured Edn1 mRNA abundance in GSK205 vs. vehicle treated paw-pad skin. […] In striking contrast, and in keeping with histopathology, Edn1 mRNA-expression in GSK205 topically-treated skin was found unchanged.
We also tested the response of down-stream UVB effector mechanisms to GSK205 treatment in vivo.

SMILES | Ca2+ transience, TRPV2 (human TRPV2) | UVB-overexposure evoked nocifensive behavior (response to pain) (mice) | histopathology of UVB-photodermatitis (mouse paw-pad skin; topical 5 mM GSK205) | keratinocyte expression of CXCL5 in UVB-exposed footpad (mouse paw-pad skin; topical 5 mM GSK205) | keratinocyte expression of IL-1β in UVB-exposed footpad (mouse paw-pad skin; topical 5 mM GSK205) | keratinocyte expression of IL-6 in UVB-exposed footpad (mouse paw-pad skin; topical 5 mM GSK205) | Edn1 mRNA expression in paw-pad skin after UVB (mouse paw-pad skin; topical 5 mM GSK205, 2 hour and 24 hour time-points)
CCN(CCc1ccc(Nc2nc(-c3ccccc3)cs2)cc1)Cc1ccccc1 [16-8/18hy] | not affected | – | – | – | – | – | –
CN(CCc1ccc(Nc2nc(-c3cccnc3)cs2)cc1)Cc1ccccc1 [GSK205] | – | as effective as vehicle | virtual elimination of inflammation; also recorded: markedly reduced inflammatory infiltrate | significant blocks; also recorded: attenuates | failed to upregulate; also recorded: attenuates | significant blocks; also recorded: attenuates | unchanged; also recorded: complete lack of this regulation
CN(CCc1ccc(Nc2nc(-c3ccccc3)cs2)cc1)Cc1ccccc1 [Compound 16-8] | not affected | especially effective in reducing the response to pain | – | – | – | – | –
